According to patent US8841269B2, “Polynucleotides for use in treating and diagnosing cancers” (Creighton University, priority 2010, dated 2014):

Experiments:
Format in all cases: cell-based, human
[1] = Real-time PCR quantification of mature let-7 after mimic transfection in MCF7; settings: for rank of forced expression throughout the time course: MCF7, relative quantity against RNU48
Procedure: Quantitative real-time PCR. For miRNA quantification in FFPE tissues, total RNA was extracted as described above; for miRNA quantification in cell lines, total RNA was isolated using mirVana miRNA Isolation Kit (Ambion Inc.). cDNA was synthesized by using 100 ng total RNA in a reaction volume of 15 μL, by following the protocol of Taqman miRNA Reverse Transcription Kit (Applied Biosystems). After 15 times dilution, 9 μL cDNA was used for real-time PCR in a 20 μL reaction volume, including 10 μL of master mix and 1 μL Taqman probe (Applied Biosystems). This reaction system only detects mature miRNAs not pre-miRNAs. The level of each miRNA was expressed following the 2^−ΔΔCt or […] method using the small nuclear RNA, RNU48, as the internal reference.
For FFPE tissues, there was the same repeat number as in microarray; for cell lines, there were three biological repeats. Each sample had three technical repeats on the PCR plate. Real-time PCR was performed on an Applied Biosystems 7900HT real-time PCR instrument. PCR was initiated by two holds of 52° C. 2 min and 94° C. 10 min each, followed by 40 cycles of 15 s at 95° C. and 1 min at 60° C.

cyclin D1 = assay: Immunoblot of cyclin D1 after transfection in MCF7; settings: MCF7, mimics; for expression of cyclin D1 (protein): after 2 days; for protein expression of cyclin D1: after 6 days
Text: Immunoblot analysis. For Western blot in FFPE tissues, an established method was followed (Addis et al., 2009, Proteomics 9:3815-23). For MCF7 cell line, let-7 mimics and negative control miRNA (60 nmol/L), or let-7 inhibitors and anti-miR negative control (60 nmol/L) were transfected following the protocol of siPORT NeoFX Transfection Agent (Applied Biosystems), The Western blot procedure was described before (Zhang et al., 2010, J Proteome Res., 9(2):980-989). Antibody information is as follows: ER-α, RB-9016-P1, Thermoscientific; Cyclin D1, sc-8396, Santa Cruz; pS2, ab80782 was Abeam; β-Actin, sc-69879, Santa Cruz.

MCF7 cells = assay: Annexin-V binding assay for apoptosis in MCF7
Procedure: Annexin-V binding assay for apoptosis. […] The staining followed the protocol of FITC Annexin V Apoptosis Detection Kit I (Cat #556547, BD Biosciences). Cell populations were analyzed with a BD FACSAria™ flow cytometer. Approximately 20,000 cells were counted for each sample.

[2] = system: ER-α negative MDA-MB-231 cell line; assay: MTT cell proliferation assay in MDA-MB-231; settings: MDA-MB-231, DMEM with 10% FBS
Procedure: FIG. 10. The effects of let-7a, let-7b, and let-7i miRNAs on cell proliferation in ER-α negative MDA-MB-231 cell line. Cancer cell proliferation was monitored by MTT assays in the same way as in MCF7 cell line except MDA-MB-231 cells were grown in DMEM with 10% FBS.
MTT cell proliferation assay. MCF7 cells were transfected with let-7 mimics or negative controls (60 nmol/L) in normal growth medium for 1 day, or in medium with 2.5% charcoal-stripped FBS for 2 days to exhaust endogenous estrogen, following the protocol of siPORT NeoFX Transfection Agent (Applied Biosystems). For the experiment in normal growth medium, 10^4 cells in the volume of 100 μL were seeded in a 96-well plate for 12 hours and assay lasted for another 4 days. For experiments in E2 free medium, 1.5 10^4 cells were seeded in a 96-well plate for 12 hours and then exposed to 10 nmol/L E2, or not, for up to 4 days. For both experiments, each treatment had 12 replicates on the plate. The cells were then incubated in 0.83 mg/mL 3-[4,5-dimethylthiazol-2-yl]-2,5-diphenyltetrazolium bromide (MTT) in growth medium at 37° C. for 4 h and lysed in 100 μL of DMSO at room temperature for 15 min. The absorbance in each well was measured at 490 nm by an ELx800 Absorbance Microplate Reader (Biotek). Cell proliferation was normalized to day 0.

[3] = system: estrogen response element (ERE) construct; assay: ERE luciferase assay (2 ERE-tk-Luc), genomic estrogen pathway in MCF7; settings: for ERE luciferase activity: MCF7, p2 ERE-tk-Luc, 10 nmol/L E2 12 hours, p<0.01; for luciferase activity of the ERE construct: MCF7 cell line
Procedure: For checking on the genomic estrogen pathway, 10^5 MCF7 cells were first seeded into each well on a 24-well plate and cultured in IMEM with 2.5% charcoal-stripped FBS for 2 days. Then the cells were transfected as described above except that the estrogen response element (ERE) construct (2 ERE-tk-Luc; obtained from Katarine Pettersson, Karolinska Institute, Stockholm) replaced the pMIR-REPORT plasmid for 1 day. After stimulation with 10 nmol/L E2 for 12 hours, luciferase activity was measured as described above.

ER-α36 mRNA = assay: Real-time PCR of ER-α36 mRNA after transfection; settings: for ER-α36 mRNA expression: MDA-MB-231, mimics, vs negative control miRNA; for ER-α36 mRNA level: MDA-MB-231, two days post transfection
Procedure: To assess the expression levels of ER-α66 and ER-α36 with real-time PCR, total RNA was extracted using Trizol reagent (Invitrogen, Carsbad, Calif.). One microgram RNA was used for cDNA synthesis with the SuperScript III first-strand synthesis system (Invitrogen, Carsbad, Calif.). After 10 dilution, 4 μL cDNA was used in 20 μL reaction volume, which includes 4 μL of 1.5 μmol/L primers, 2 μL of 2 μmol/L probes, and 10 μL TaqMan universal PCR master mix with ampErase UNG (Applied Biosystems). The reaction condition was the same as miRNA real-time PCR. β-Actin was the internal control (Applied Biosystems, Foster City, Calif.). The primers for ER-α66 are: 5′-GCGGCCACGGACCAT (forward) (SEQ ID NO:20); 5′-[…] (SEQ ID NO:21) (reverse); 5′-FAM-[…]-TAMRA-3′ (probe) (SEQ ID NO:22). The primers for ER-α36 are: 5′-[…] (forward) (SEQ ID NO:23); 5′-[…] (reverse) (SEQ ID NO:24); 5′-[…] TAMRA-3′ (probe) (SEQ ID NO:43).
Let-7 miRNA or negative control #1 miRNA of 60 nmol/L (Ambion, Austin, Tex.) was transfected into cells with the siPORT NeoFX reagent (Ambion, Austin, Tex.) following the manufacturer's protocol.

[4] = MCF7, one day post transfection, 60 nmol/L each

Substance: let-7b: let-7b miRNA (mimic), 3′-UUGGUGUGUUGGAUGAUGGAGU-5′ (SEQ ID NO:8) (chemistry not given here; listed 3' to 5')
- expression of let-7b relative to let-7a and let-7i ([1]; MCF7, after 2 days): 2
- mature let-7b level relative to let-7a ([1]; MCF7, after 6 days): ~10
- mature let-7b level relative to let-7a [1, 4]: ~20
- mature let-7b level relative to let-7i [1, 4]: ~6
- rank of forced expression throughout the time course [1]: highest expression
- expression of cyclin D1 (protein) (cyclin D1): significantly inhibited
- protein expression of cyclin D1 (cyclin D1): significantly decreased
- apoptotic rate (MCF7 cells; MCF7, after 6 days): 28.6%
- apoptotic rate (MCF7 cells; MCF7, three days post-transfection): 7%
- cell growth (MTT) [2]: None of three miRNAs significantly inhibited cell growth
- ERE luciferase activity [3]: about 40 % of negative control
- luciferase activity of the ERE construct [3]: inhibit the luciferase activity of the ERE construct
- ER-α36 mRNA expression (ER-α36 mRNA): 30 % of the controls
- ER-α36 mRNA level (ER-α36 mRNA): inhibited

Substance: let-7i: let-7i miRNA (mimic), 3′-UUGUCGUGUUUGAUGAUGGAGU-5′ (SEQ ID NO:14) (chemistry not given here; listed 3' to 5')
- rank of forced expression throughout the time course [1]: in the middle
- expression of cyclin D1 (protein) (cyclin D1): significantly inhibited
- protein expression of cyclin D1 (cyclin D1): modest effect
- effect on apoptosis (MCF7 cells; MCF7, after either 3 days or 6 days): not significant
- cell growth (MTT) [2]: None of three miRNAs significantly inhibited cell growth
- ERE luciferase activity [3]: about 60 % of negative control
- luciferase activity of the ERE construct [3]: inhibit the luciferase activity of the ERE construct
- ER-α36 mRNA expression (ER-α36 mRNA): 30 % of the controls
- ER-α36 mRNA level (ER-α36 mRNA): inhibited
